From PubChem BioAssay AID2060614 (Molecular Pharmacology Branch, DTP, NCI, 2025)

Test system: 598228-144-R-J1-PDC complex spheroids, viability
Assay: Anticancer human tumor 598228-144-R-J1-PDC patient-derived serous endometrial adenocarcinoma cell line growth inhibition [CLK]
Settings: for IC50: curve of first compound; for viability, T/C: stronger effect = lower value
Summary of the method: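 Patient-derived tumor cells grown as complex spheroids with HUVEC endothelial cells and mesenchymal stem cells, treated with drug combinations. Concentrations descend in half-log steps from near clinical Cmax, or from 10 microM if Cmax unknown.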
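Also: spheroids exposed to compounds for seven days before readout.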
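For viability, T/C in this document: 100% = DMSO vehicle control wells.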

CC(Nc1ccc2c(c1)OCCn1cc(N3C(=O)OCC3C(F)F)nc1-2)C(N)=O (configuration not stated) + CNC(=O)c1ccc(Nc2nc(OC3CCCC3)c3c(-c4ccc5nc(C)oc5c4)c[nH]c3n2)c(OC)c1
IC50 (second compound 0.0316 µM): 309 nM
IC50 (second compound 0.1 µM): 310 nM
IC50 (second compound 0.316 µM): 248 nM
IC50 (second compound 1 µM): 159 nM
IC50 (second compound 3.16 µM): 145 nM
IC50 (second compound 10 µM): 100 nM
viability, T/C (second compound 0.0316 µM, first compound 0.0316 µM): 91.9%
viability, T/C (second compound 0.0316 µM, first compound 0.1 µM): 62.8%
viability, T/C (second compound 0.0316 µM, first compound 0.316 µM): 53.1%
viability, T/C (second compound 0.0316 µM, first compound 1 µM): 38.2%
viability, T/C (second compound 0.0316 µM, first compound 3.16 µM): 31.5%
viability, T/C (second compound 0.0316 µM, first compound 10 µM): 25.8%
viability, T/C (second compound 0.1 µM, first compound 0.0316 µM): 88.2%
viability, T/C (second compound 0.1 µM, first compound 0.1 µM): 70.3%
viability, T/C (second compound 0.1 µM, first compound 0.316 µM): 47%
viability, T/C (second compound 0.1 µM, first compound 1 µM): 35.5%
viability, T/C (second compound 0.1 µM, first compound 3.16 µM): 35.5%
viability, T/C (second compound 0.1 µM, first compound 10 µM): 22.1%
viability, T/C (second compound 0.316 µM, first compound 0.0316 µM): 77.5%
viability, T/C (second compound 0.316 µM, first compound 0.1 µM): 58.5%
viability, T/C (second compound 0.316 µM, first compound 0.316 µM): 51.6%
viability, T/C (second compound 0.316 µM, first compound 1 µM): 32.2%
viability, T/C (second compound 0.316 µM, first compound 3.16 µM): 26.2%
viability, T/C (second compound 0.316 µM, first compound 10 µM): 22.9%
viability, T/C (second compound 1 µM, first compound 0.0316 µM): 75.2%
viability, T/C (second compound 1 µM, first compound 0.1 µM): 56.4%
viability, T/C (second compound 1 µM, first compound 0.316 µM): 37.4%
viability, T/C (second compound 1 µM, first compound 1 µM): 32.4%
viability, T/C (second compound 1 µM, first compound 3.16 µM): 23.1%
viability, T/C (second compound 1 µM, first compound 10 µM): 12.8%
viability, T/C (second compound 3.16 µM, first compound 0.0316 µM): 69.7%
viability, T/C (second compound 3.16 µM, first compound 0.1 µM): 58.4%
viability, T/C (second compound 3.16 µM, first compound 0.316 µM): 33.8%
viability, T/C (second compound 3.16 µM, first compound 1 µM): 26.4%
viability, T/C (second compound 3.16 µM, first compound 3.16 µM): 21.2%
viability, T/C (second compound 3.16 µM, first compound 10 µM): 13.7%
viability, T/C (second compound 10 µM, first compound 0.0316 µM): 70.3%
viability, T/C (second compound 10 µM, first compound 0.1 µM): 50.6%
viability, T/C (second compound 10 µM, first compound 0.316 µM): 33.1%
viability, T/C (second compound 10 µM, first compound 1 µM): 22.9%
viability, T/C (second compound 10 µM, first compound 3.16 µM): 18.8%
viability, T/C (second compound 10 µM, first compound 10 µM): 12.6%
